In patent publication US5036077A, “1-(benzylpiperidino)propan-2-ol derivatives, their preparation, their use as antimicrobial agents and the products in which they are present” (Sanofi, priority 1987, dated 1991):
Values after ≈ are worked out from the molar mass of the structure shown.

Test system: Staphylococcus aureus CNCM 53154
Experiment: Minimum bactericidal concentration, 30 min contact, strain 1
Type: cell-based
Conditions: CNCM53154, 0.5 h; Staphylococcus aureus CNCM 53154; contact time 30 minutes; solubilizing agent (water, TEG or acetone) given per product; read-out: MBC, strain 1
Method: (§1) A bacterial inoculum is brought into contact with different dilutions of the test product for a limited time of 30 minutes. When the contact time has ended, an aliquot of the bacterial suspension/product mixture is deposited on the surface of a gelose culture medium containing an agent for neutralizing the antibacterial activity of the product. The bactericidal concentration chosen is the minimum concentration of the product which is necessary to prevent bacterial growth. This concentration is expressed in μg/ml.
1 - Staphylococcus aureus CNCM 53154;
(§2) The strains are maintained on Tryptic Soy Agar (TSA) marketed by Difco.
(§3) After 24 hours of culture at 37° C., the microbial growth is harvested with the aid of glass beads and 10 ml of diluent containing 1 g of tryptone and 8.5 g of sodium chloride in 1000 ml of distilled water. The suspension formed is shaken and the percentage transmission of light at 620 nm is measured on a spectrophotometer:
(§4) The bacterial inoculum corresponds to a 1/20 dilution of this bacterial suspension.
(§5) Plates containing cups receive different dilutions of the test product. These dilutions of the test product are brought into contact with the different bacterial suspensions using a multiple-site inoculator. After a contact time of 30 minutes, aliquots are transferred by means of this inoculator to the surface of a gelose medium (TSA) placed in petri dishes and containing an agent for neutralizing the activity, namely 20 g of lubrol W, 2.5 g of Tween 80, 2.5 g of sodium thiosulfate and 1% of egg yolk in 1000 ml of TSA (Difco). A reference for the efficacy of the neutralizing agent is prepared for each test product by depositing an aliquot of the dilution of the test product on the surface of the culture medium. After drying, the corresponding inoculum is deposited in the same place. A reference inoculum is prepared on a gelose medium with and without neutralizing agent. The results are read off after 48 hours of incubation at 37° C.
(§6) They indicate the minimum bactericidal concentrations (MBC) for strains 1, 2, 3 and 4 and the minimum fungicidal concentrations (MFC) for strain 5.

First: OC(CSc1ccc(Cl)c(Cl)c1)CN1CCC(Cc2ccc(Cl)cc2)CC1 (racemic) [SR 45077 A]
Second: OC(CSc1ccc(Cl)c(Cl)c1)CN1CCC(Cc2ccccc2)CC1 (racemic) [SR 44473 A]
The MBC of the first is 20-fold lower: 50 µg/mL (≈ 112 µM) for the first, 1000 µg/mL (≈ 2440 µM) for the second.

Going from `OC(CSc1cccc(Br)c1)CN1CCC(Cc2ccccc2)CC1` (racemic) [SR 45204 A] to `OC(CSc1ccc(Br)cc1)CN1CCC(Cc2ccc(Cl)cc2)CC1` (racemic) [SR 45076 A], the MBC falls from > 200 µg/mL to 50 µg/mL (≈ 110 µM).

Compared with `CC(C)(C)c1ccc(OCC(O)CN2CCC(Cc3ccccc3)CC2)cc1` (racemic) [SR 44648 A], `OC(COc1ccc2ccccc2c1)CN1CCC(Cc2ccccc2)CC1` (racemic) [SR 44807 A] is 5-fold higher in MBC: 200 µg/mL (≈ 524 µM) for the first, 1000 µg/mL (≈ 2660 µM) for the second.

In the case of `OC(COc1cccc2ccccc12)CN1CCC(Cc2ccc(Cl)cc2)CC1` (racemic) [SR 44999 A], the MBC is reported as 50 µg/mL (≈ 122 µM).

Test system: Streptococcus faecalis CNCM 5855
Experiment: Minimum bactericidal concentration, 30 min contact, strain 2
Type: cell-based
Conditions: Enterococcus faecalis, CNCM5855, 0.5 h; Streptococcus faecalis CNCM 5855; contact time 30 minutes; solubilizing agent given per product; read-out: MBC, strain 2
Method: as §1
2 - Streptococcus faecalis CNCM 5855;
as §2, §3, §4, §5, §6

Going from `OC(CSc1ccc(Cl)c(Cl)c1)CN1CCC(Cc2ccc(Cl)cc2)CC1` (racemic) [SR 45077 A] to `OC(CSc1ccc(Cl)c(Cl)c1)CN1CCC(Cc2ccccc2)CC1` (racemic) [SR 44473 A], the MBC rises from 10 µg/mL (≈ 22.5 µM) to 50 µg/mL (≈ 122 µM) (5-fold).

Going from `OC(CSc1cccc(Br)c1)CN1CCC(Cc2ccccc2)CC1` (racemic) [SR 45204 A] to `OC(CSc1ccc(Br)cc1)CN1CCC(Cc2ccc(Cl)cc2)CC1` (racemic) [SR 45076 A], the MBC falls from > 200 µg/mL to 10 µg/mL (≈ 22 µM).

Going from `CC(C)(C)c1ccc(OCC(O)CN2CCC(Cc3ccccc3)CC2)cc1` (racemic) [SR 44648 A] to `OC(COc1ccc2ccccc2c1)CN1CCC(Cc2ccccc2)CC1` (racemic) [SR 44807 A], the MBC rises from 200 µg/mL (≈ 524 µM) to 1000 µg/mL (≈ 2660 µM) (5-fold).

In the case of `OC(COc1cccc2ccccc12)CN1CCC(Cc2ccc(Cl)cc2)CC1` (racemic) [SR 44999 A], the MBC is reported as ≤ 10 µg/mL.

Test system: Pseudomonas aeruginosa CNCM A22
Experiment: Minimum bactericidal concentration, 30 min contact, strain 3
Type: cell-based
Conditions: CNCMA22, 0.5 h; Pseudomonas aeruginosa CNCM A22; contact time 30 minutes; solubilizing agent given per product; read-out: MBC, strain 3
Method: as §1
3 - Pseudomonas aeruginosa CNCM A22;
as §2, §3, §4, §5, §6

`OC(CSc1ccc(Cl)c(Cl)c1)CN1CCC(Cc2ccc(Cl)cc2)CC1` (racemic) [SR 45077 A] and `OC(CSc1ccc(Cl)c(Cl)c1)CN1CCC(Cc2ccccc2)CC1` (racemic) [SR 44473 A] are the same in MBC: 50 µg/mL (≈ 112 µM) for the first, 50 µg/mL (≈ 122 µM) for the second.

`OC(CSc1cccc(Br)c1)CN1CCC(Cc2ccccc2)CC1` (racemic) [SR 45204 A] and `OC(CSc1ccc(Br)cc1)CN1CCC(Cc2ccc(Cl)cc2)CC1` (racemic) [SR 45076 A] are the same in MBC: 50 µg/mL (≈ 119 µM) for the first, 50 µg/mL (≈ 110 µM) for the second.

First: CC(C)(C)c1ccc(OCC(O)CN2CCC(Cc3ccccc3)CC2)cc1 (racemic) [SR 44648 A]
Second: OC(COc1ccc2ccccc2c1)CN1CCC(Cc2ccccc2)CC1 (racemic) [SR 44807 A]
The MBC of the first is 4-fold lower: 50 µg/mL (≈ 131 µM) for the first, 200 µg/mL (≈ 533 µM) for the second.

With `OC(COc1cccc2ccccc12)CN1CCC(Cc2ccc(Cl)cc2)CC1` (racemic) [SR 44999 A] the MBC was ≤ 10 µg/mL.

Test system: Escherichia coli CNCM 54127
Experiment: Minimum bactericidal concentration, 30 min contact, strain 4
Type: cell-based
Conditions: CNCM54127, 0.5 h; Escherichia coli CNCM 54127; contact time 30 minutes; solubilizing agent given per product; read-out: MBC, strain 4
Method: as §1
4 - Escherichia coli CNCM 54127.
as §2, §3, §4, §5, §6

First: OC(CSc1ccc(Cl)c(Cl)c1)CN1CCC(Cc2ccc(Cl)cc2)CC1 (racemic) [SR 45077 A]
Second: OC(CSc1ccc(Cl)c(Cl)c1)CN1CCC(Cc2ccccc2)CC1 (racemic) [SR 44473 A]
The MBC of the first is 5-fold lower: 10 µg/mL (≈ 22.5 µM) for the first, 50 µg/mL (≈ 122 µM) for the second.

First: OC(CSc1cccc(Br)c1)CN1CCC(Cc2ccccc2)CC1 (racemic) [SR 45204 A]
Second: OC(CSc1ccc(Br)cc1)CN1CCC(Cc2ccc(Cl)cc2)CC1 (racemic) [SR 45076 A]
The MBC of the first is 5-fold higher: 50 µg/mL (≈ 119 µM) for the first, 10 µg/mL (≈ 22 µM) for the second.

First: CC(C)(C)c1ccc(OCC(O)CN2CCC(Cc3ccccc3)CC2)cc1 (racemic) [SR 44648 A]
Second: OC(COc1ccc2ccccc2c1)CN1CCC(Cc2ccccc2)CC1 (racemic) [SR 44807 A]
The MBC of the first is 4-fold lower: 50 µg/mL (≈ 131 µM) for the first, 200 µg/mL (≈ 533 µM) for the second.

In the case of `OC(COc1cccc2ccccc12)CN1CCC(Cc2ccc(Cl)cc2)CC1` (racemic) [SR 44999 A], the MBC is reported as ≤ 10 µg/mL.

Test system: Candida albicans CNCM 1180
Experiment: Minimum fungicidal concentration, strain 5
Type: cell-based
Conditions: CNCM1180, 0.5 h; Candida albicans CNCM 1180; contact time 30 minutes; solubilizing agent given per product; read-out: MFC, strain 5
Method: as §1, §5
The antifungal activity of the products according to the invention was also determined using the method described above. The representative strain of yeast selected for the study was Candida albicans CNCM 1180 (strain 5).
This is maintained on a gelose medium of Sabouraud Dextrose Agar, marketed by Difco. The technique is identical to that described for studying the antibacterial activity. After 48 hours of culture at 37° C., the microbial growth is harvested with the aid of glass beads and 5 ml of diluent containing 1 g of tryptone and 8.5 g of sodium chloride in 1000 ml of distilled water; a further 5 ml of the diluent are then added. In a spectrophotometer, this suspension gives a 2 to 3% transmission of light at 620 nm. The inoculum corresponds to a 1/10 dilution of this microbial suspension. A 1/100 dilution of this suspension, observed between a microscope slide and cover slip through a lens of magnification 40, should show 10 cells per field, which corresponds to 1 000 000 yeasts per ml.
as §6

`OC(CSc1ccc(Cl)c(Cl)c1)CN1CCC(Cc2ccc(Cl)cc2)CC1` (racemic) [SR 45077 A] and `OC(CSc1ccc(Cl)c(Cl)c1)CN1CCC(Cc2ccccc2)CC1` (racemic) [SR 44473 A] are the same in MFC: 50 µg/mL (≈ 112 µM) for the first, 50 µg/mL (≈ 122 µM) for the second.

Going from `OC(CSc1cccc(Br)c1)CN1CCC(Cc2ccccc2)CC1` (racemic) [SR 45204 A] to `OC(CSc1ccc(Br)cc1)CN1CCC(Cc2ccc(Cl)cc2)CC1` (racemic) [SR 45076 A], the MFC falls from > 200 µg/mL to 50 µg/mL (≈ 110 µM).

First: CC(C)(C)c1ccc(OCC(O)CN2CCC(Cc3ccccc3)CC2)cc1 (racemic) [SR 44648 A]
Second: OC(COc1ccc2ccccc2c1)CN1CCC(Cc2ccccc2)CC1 (racemic) [SR 44807 A]
The MFC of the first is 5-fold lower: 200 µg/mL (≈ 524 µM) for the first, 1000 µg/mL (≈ 2660 µM) for the second.

In the case of `OC(COc1cccc2ccccc12)CN1CCC(Cc2ccc(Cl)cc2)CC1` (racemic) [SR 44999 A], the MFC is reported as ≤ 10 µg/mL.
